In patent US20260116910A1, “POLYCYCLIC COMPOUNDS AND METHODS THEREOF” (HEPAITECH (BEIJING) BIOPHARMA TECHNOLOGY CO., LTD., priority 2021, published 2026):
Values joined by “and” are separate entries in the source; they are usually repeats but may differ in a detail not shown here. Equal values may be shown once. Read-outs that look alike come from different tables or passages of the source.

How the values were obtained:
human FXR (NR1H4) = target: T1, human FXR (NR1H4) (Homo sapiens, UniProt Q96RI1); experiment: Human FXR (NR1H4) agonist assessment, FXRE-NanoLuc reporter in HEK293T cells; format: cell-based
T1 sequence (Q96RI1 1-476 isoform Q96RI1-1): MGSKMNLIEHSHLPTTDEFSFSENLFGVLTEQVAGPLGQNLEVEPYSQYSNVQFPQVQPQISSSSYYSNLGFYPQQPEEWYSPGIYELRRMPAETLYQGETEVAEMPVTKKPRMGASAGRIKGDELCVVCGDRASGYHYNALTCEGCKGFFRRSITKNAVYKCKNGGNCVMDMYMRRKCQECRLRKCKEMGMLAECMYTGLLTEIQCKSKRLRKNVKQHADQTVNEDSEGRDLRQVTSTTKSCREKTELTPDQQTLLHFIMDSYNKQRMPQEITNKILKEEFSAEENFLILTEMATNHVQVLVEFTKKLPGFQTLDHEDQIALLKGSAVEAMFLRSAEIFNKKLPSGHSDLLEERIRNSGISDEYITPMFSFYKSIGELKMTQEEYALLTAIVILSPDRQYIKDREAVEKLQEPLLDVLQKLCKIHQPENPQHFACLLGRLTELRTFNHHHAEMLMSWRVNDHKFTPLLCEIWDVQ
Summary of the method: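 HEK293T cells stably expressing human FXR with an FXRE-NanoLuc reporter were treated with compounds for 24 hr at 37 °C, with 0.01% DMSO as negative control. Medium was read for luminescence after 5 min with coelenterazine. EC50 was fitted by sigmoid to concentration-response data.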

MRGPRX4 = MRGPRX4 (Homo sapiens, UniProt Q96LA9); experiment: MRGPRX4 activation, Fluo-8 Ca2+ FLIPR assay in HEK293T cells stably expressing MRGPRX4; format: cell-based; set-up: key to MRGPRX4 activation, Average / MRGPRX4 activation, Ave.: fluorescence change dF/F0
Chain of MRGPRX4 (Q96LA9 whole entry): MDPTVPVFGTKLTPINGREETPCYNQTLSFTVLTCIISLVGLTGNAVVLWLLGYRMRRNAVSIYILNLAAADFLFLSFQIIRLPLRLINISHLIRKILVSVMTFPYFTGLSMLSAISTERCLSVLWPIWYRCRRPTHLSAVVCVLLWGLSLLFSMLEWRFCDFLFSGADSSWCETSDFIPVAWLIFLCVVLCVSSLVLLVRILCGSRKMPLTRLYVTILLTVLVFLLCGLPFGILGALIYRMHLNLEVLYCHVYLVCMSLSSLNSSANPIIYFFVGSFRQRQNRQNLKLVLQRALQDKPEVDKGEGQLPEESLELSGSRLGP
Summary of the method: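 Cells seeded overnight to >95% confluence, loaded 40-60 min at room temperature with 2 μM Fluo-8 AM, then kept in HHBS. Baseline read 30 s, compound added, signal followed 150 s more.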

[1] = FXR activation, HEK293T FXRE-NanoLuc reporter, 24 hr, read-out: EC50
[2] = MRGPRX4 activation, Ca2+ fluorescence, no activation in tested range reported as III, read-out: Activity (EC50 μM)
[3] = FXR activation, HEK293T FXRE-NanoLuc reporter, 24 hr

Compound	EC50 (human FXR (NR1H4); [1])	EC50 (MRGPRX4; [2])	Efficacy (maximum measured induction of NanoLuc, normalized to CDCA set as 100%) (human FXR (NR1H4); [3])	MRGPRX4 activation, fluorescence change (dF/F0), Average (MRGPRX4; Conc. (Log[M]) −4.5)	MRGPRX4 activation, fluorescence change (dF/F0), Average (MRGPRX4; Conc. (Log[M]) −4)	MRGPRX4 activation, fluorescence change (dF/F0), Average (MRGPRX4; Conc. (Log[M]) −5)	MRGPRX4 activation, fluorescence change (dF/F0), Average (MRGPRX4; Conc. (Log[M]) −5.5)	MRGPRX4 activation, fluorescence change (dF/F0), Average (MRGPRX4; Conc. (Log[M]) −6)	MRGPRX4 activation, fluorescence change (dF/F0), Average (MRGPRX4; Conc. (Log[M]) −7)	MRGPRX4 activation, fluorescence change (dF/F0), Average (MRGPRX4; Conc. (Log[M]) −8)	MRGPRX4 activation, fluorescence change (dF/F0), Average (MRGPRX4; Conc. (Log[M]) −9)	further results
CC[C@H]1[C@@H](O)[C@@H]2[C@H](CC[C@]3(C)[C@@H]([C@H](C)CCNC(=S)NS(=O)(=O)c4cccs4)CC[C@@H]23)[C@@]2(C)CCC(F)(F)C[C@@H]12 [11-3]	< 1 µM	> 100 µM										Efficacy (maximum measured induction of NanoLuc, normalized to CDCA set as 100%) (human FXR (NR1H4)): C (key: A: efficacy >400%; B: 300%<efficacy <=400%; C: 100%<efficacy <=300%; D: efficacy <=100%); MRGPRX4 activation, Average (MRGPRX4; E3-9, Conc. (Log[M]) −4.0): 0.003; MRGPRX4 activation, Average (MRGPRX4; E3-9, Conc. (Log[M]) −4.5): 0.010; MRGPRX4 activation, Average (MRGPRX4; E3-9, Conc. (Log[M]) −5.0): 0.015; MRGPRX4 activation, Average (MRGPRX4; E3-9, Conc. (Log[M]) −5.4): 0.015; MRGPRX4 activation, Average (MRGPRX4; E3-9, Conc. (Log[M]) −5.9): 0.015; MRGPRX4 activation, Average (MRGPRX4; E3-9, Conc. (Log[M]) −6.4): 0.008; MRGPRX4 activation, Average (MRGPRX4; E3-9, Conc. (Log[M]) −6.9): 0.010; MRGPRX4 activation, Average (MRGPRX4; E3-9, Conc. (Log[M]) −7.3): 0.015; MRGPRX4 activation, Average (MRGPRX4; E3-9, Conc. (Log[M]) −7.8): 0.018; MRGPRX4 activation, Average (MRGPRX4; E3-9, Conc. (Log[M]) −8.3): 0.051
CC[C@H]1[C@@H](O)[C@@H]2[C@H](CC[C@]3(C)[C@@H]([C@H](C)CCC(=O)NS(C)(=O)=O)CC[C@@H]23)[C@@]2(C)CC[C@H](F)C[C@@H]12 [9-7]	1 to 10 µM	> 100 µM	A (efficacy >400%)	0.022 and 0.037								
C[C@H](CCCO)[C@H]1CC[C@H]2[C@@H]3CC[C@@H]4CCCC[C@]4(C)[C@H]3CC[C@]12C [compound 77]	1 to 10 µM	> 100 µM		0.014	0.067	−0.029	−0.023	−0.017	−0.009	−0.014	−0.012	Efficacy (maximum measured induction of NanoLuc, normalized to CDCA set as 100%) (human FXR (NR1H4)): B (key: A: efficacy >400%; B: 300%<efficacy <=400%; C: 100%<efficacy <=300%; D: efficacy <=100%)
CC[C@H]1[C@@H](O)[C@@H]2[C@H](CC[C@]3(C)[C@@H]([C@H](C)CCNC(=O)NS(=O)(=O)c4cc(F)cc(F)c4)CC[C@@H]23)[C@@]2(C)CCC(F)(F)C[C@@H]12 [10-3]	< 1 µM	> 100 µM	C (100%<efficacy <=300%)									MRGPRX4 activation, Average (MRGPRX4; E3-9, Conc. (Log[M]) −4.0): 0.010; MRGPRX4 activation, Average (MRGPRX4; E3-9, Conc. (Log[M]) −4.5): 0.004; MRGPRX4 activation, Average (MRGPRX4; E3-9, Conc. (Log[M]) −5.0): 0.014; MRGPRX4 activation, Average (MRGPRX4; E3-9, Conc. (Log[M]) −5.4): 0.016; MRGPRX4 activation, Average (MRGPRX4; E3-9, Conc. (Log[M]) −5.9): 0.023; MRGPRX4 activation, Average (MRGPRX4; E3-9, Conc. (Log[M]) −6.4): 0.018; MRGPRX4 activation, Average (MRGPRX4; E3-9, Conc. (Log[M]) −6.9): 0.023; MRGPRX4 activation, Average (MRGPRX4; E3-9, Conc. (Log[M]) −7.3): 0.021; MRGPRX4 activation, Average (MRGPRX4; E3-9, Conc. (Log[M]) −7.8): 0.012; MRGPRX4 activation, Average (MRGPRX4; E3-9, Conc. (Log[M]) −8.3): 0.018
C[C@H](CCCC(=O)O)[C@H]1CC[C@H]2[C@@H]3CC[C@@H]4C[C@H](O)CC[C@]4(C)[C@H]3C[C@H](O)[C@]12C [RC-2]	1 to 10 µM	< 50 µM	B (300%<efficacy <=400%)	0.159	0.242	0.126	0.034	0.017	−0.012	−0.010	−0.018	
CC[C@H]1[C@@H](O)[C@@H]2[C@H](CC[C@]3(C)[C@@H]([C@H](C)CCNC(=S)NS(=O)(=O)c4ccc(C(C)(C)CF)cc4)CC[C@@H]23)[C@@]2(C)CCC(F)(F)C[C@@H]12 [11-4]	< 1 µM	> 100 µM										Efficacy (maximum measured induction of NanoLuc, normalized to CDCA set as 100%) (human FXR (NR1H4)): B (key: A: efficacy >400%; B: 300%<efficacy <=400%; C: 100%<efficacy <=300%; D: efficacy <=100%); MRGPRX4 activation, Average (MRGPRX4; E3-9, Conc. (Log[M]) −4.0): 0.013; MRGPRX4 activation, Average (MRGPRX4; E3-9, Conc. (Log[M]) −4.5): 0.013; MRGPRX4 activation, Average (MRGPRX4; E3-9, Conc. (Log[M]) −5.0): 0.020; MRGPRX4 activation, Average (MRGPRX4; E3-9, Conc. (Log[M]) −5.4): 0.015; MRGPRX4 activation, Average (MRGPRX4; E3-9, Conc. (Log[M]) −5.9): 0.015; MRGPRX4 activation, Average (MRGPRX4; E3-9, Conc. (Log[M]) −6.4): 0.013; MRGPRX4 activation, Average (MRGPRX4; E3-9, Conc. (Log[M]) −6.9): 0.010; MRGPRX4 activation, Average (MRGPRX4; E3-9, Conc. (Log[M]) −7.3): 0.015; MRGPRX4 activation, Average (MRGPRX4; E3-9, Conc. (Log[M]) −7.8): 0.015; MRGPRX4 activation, Average (MRGPRX4; E3-9, Conc. (Log[M]) −8.3): 0.022
CC[C@H]1[C@@H](O)[C@@H]2[C@H](CC[C@]3(C)[C@@H]([C@H](C)CC#N)CC[C@@H]23)[C@@]2(C)CCCC[C@@H]12 [2-4]	> 10 µM	> 100 µM	C (100%<efficacy <=300%)	−0.025	0.008	−0.026	−0.018	−0.037	−0.025	−0.038	−0.037	
CC[C@H]1[C@@H](O)[C@@H]2[C@H](CC[C@]3(C)[C@@H]([C@H](C)CCNC(=O)NS(=O)(=O)c4cc(F)ccc4F)CC[C@@H]23)[C@@]2(C)CCCC[C@@H]12 [5-23]	< 1 µM	> 100 µM	A (efficacy >400%)									MRGPRX4 activation, Ave. (MRGPRX4; E3-7, Conc. (Log[M]) −4): −0.027; MRGPRX4 activation, Ave. (MRGPRX4; E3-7, Conc. (Log[M]) −4.5): −0.027; MRGPRX4 activation, Ave. (MRGPRX4; E3-7, Conc. (Log[M]) −5): −0.014; MRGPRX4 activation, Ave. (MRGPRX4; E3-7, Conc. (Log[M]) −5.5): −0.054; MRGPRX4 activation, Ave. (MRGPRX4; E3-7, Conc. (Log[M]) −6): −0.041; MRGPRX4 activation, Ave. (MRGPRX4; E3-7, Conc. (Log[M]) −7): 0.000
CC[C@H]1[C@@H](O)[C@@H]2[C@H](CC[C@]3(C)[C@@H]([C@H](C)CCNC(=O)NS(=O)(=O)c4ccc(C(C)(C)C(=O)O)cc4)CC[C@@H]23)[C@@]2(C)CCCC[C@@H]12 [5-10]	< 1 µM	> 100 µM	C (100%<efficacy <=300%)	0.043	0.090	0.013	0.017	0.020	0.030			
C[C@H](CCC(=O)O)[C@H]1CC[C@H]2[C@@H]3CC[C@@H]4CC(=O)CC[C@]4(C)[C@H]3CC[C@]12C [compound 16]			C (100%<efficacy <=300%)	0.322	0.416	0.130	−0.020	−0.010	0.013	0.012	−0.005	EC50 (human FXR (NR1H4)): > 10 µM; EC50 (MRGPRX4): < 50 µM
CC(=O)CC[C@@H](C)[C@H]1CC[C@H]2[C@@H]3CC[C@@H]4CCCC[C@]4(C)[C@H]3CC[C@]12C [compound 21]	1 to 10 µM	> 100 µM	C (100%<efficacy <=300%)									
